Laboratory results from patent US20020132276A1, “FACS method for detecton of GPIIb/IIIa inhibitor dependent activators in plasma samples” (priority 1999, published 2002).
“Also recorded” adds a separate entry of the source.

Experiments:
platelet CD62 [1] = assay: Depletion of DDPAS from plasma by platelets with Compound A, and EDTA elution, read in the DDPASFCA; type: cell-based, human
Description: Thrombocytopenic patient plasma was processed as described in Example 1 and Delta fluorescence is shown (FIG. 3, panel A) as a function of volume percent patient plasma. After treatment of 099016 plasma with platelets in the presence and in the absence of compound A, samples were evaluated in the DDPASFCA at a 1/3 dilution using fresh donor PRP.
Thrombocytopenic patient 099016 plasma was evaluated in the DDPASFCA as in Example 1, with the modification that 10 μL of sample, or a sample of 099016 plasma diluted into DDPASFCA-negative plasma, was combined with 20 μL donor PRP (final platelet concentration=1×10^8/mL). The signal in the DDPASFCA was proportional to the patient plasma dilution. Next, the ability of platelets, a physiologically relevant source of GPIIb/IIIa, to remove certain kinds of DDPASs was tested. DDPAS positive thrombocytopenic plasma 099016 (70 μl) was treated with fresh donor PRP (140 μL, final platelet concentration 3×10^8/mL) for 60 minutes in the presence or the absence of compound A (1 μM). Platelets were removed by centrifugation at 1000×G for 5 minutes, and the resulting plasma samples were tested in the DDPASFCA as in Example 1, with the modification that 3 μL of sample was combined with 27 μL donor PRP (final platelet concentration=1×10^8/mL) in the presence or the absence of Compound A (1 μM). […] The samples were then evaluated in the DDPASFCA.

[2] = system: drug-dependent anti-platelet antibody (DDAB); assay: Depletion and recovery of DDAB from patient 099016 plasma by platelets with Compound A, read in the DDAB ELISA; type: binding, human
Description: Thrombocytopenic patient plasma was processed as described in Example 9. After treatment of 099016 plasma with platelets in the presence and in the absence of Compound A, samples were evaluated in the DDAB ELISA (see commonly-owned pending U.S. patent application Ser. No. 09/237061, filed Jan. 26, 1999, the contents of which are herein incorporated by reference) at 3 dilutions (1/100; 1/250 and 1/500) for residual DDAB. Murine JK094 was used as a positive control for the ELISA.
Thrombocytopenic patient 099016 plasma was processed with platelets in the presence or the absence of Compound A to deplete any DDAB as described in Example 9. After treatment of 099016 plasma with platelets in the presence and in the absence of Compound A, samples were evaluated in the DDAB ELISA at 3 dilutions (1/100, 1/250 and 1/500) for residual DDAB. Murine JK094 was used as a positive control for the ELISA.

platelet CD62 [3] = assay: DDPASFCA in alternative microtiter plates (Costar Serocluster #3897 versus #3898); type: cell-based, human; details: Compound A 200 nM
Description: ADP and DPC38 were used as sources of DDPASs. 2 μL of citrated PRP (DPC3) was added to either Costar Serocluster® 96 well V-bottom microtiterplates (#3897) or #3898 microtiter plates (Costar Serocluster®) (rated as “hydrophilic” in nature by the manufacturer). Platelets were then treated with and without Compound A (200 nM) with the indicated concentrations of ADP. Similarly, DDPAS positive PRP (DPC38) was added to wells of both types of plates and treated with and without Compound A (200 nM). Reactions were incubated without shaking for 120 minutes. After this time, 20 μL of phycoerythrin conjugated anti-CD62 (anti-CD62-PE, Bectin Dickinson) was added. After 30 minutes the samples were diluted with 150 μL flow buffer and bound anti-CD62-PE measured as described in Example 1.
Delta SC=Delta Fluorescence for Costar Serocluster microtiter plates
Delta H=Delta Fluorescence for H3898 microtiter plates

[4] = Thrombocytopenia in a patient who received Compound A; type: in vivo, human; details: patient #304
Description: The development of DDPASs in the plasma of a patient who received Compound A and developed thrombocytopenia was analyzed using the procedure of Example 1. DDPASFCA was not determined for patient #304 prior to taking Compound A. The patient experienced thrombocytopenia after 3 days of administration of Compound A. DDPASs were subsequently detected in this patient's plasma on day 22 post-administration of Compound A and were also detected 17 months later (FIG. 2). DPC38 was used as a positive control. DPC3 was used as a negative control. […] In a prospective study, a patient with such pre-existing DDPASs could be excluded from the study, possibly preventing the clinically significant thrombocytopenic episode.

[5] = platelet donor DPC38 (DDPAS positive PRP), ADP 0 uM
[6] = platelet donor DPC50 (DDPASFCA negative), ADP 0 uM

SMILES: CCCCOC(=O)N[C@@H](CNC(=O)C[C@H]1CC(c2ccc(C(=N)N)cc2)=NO1)C(=O)O [Compound A, 2(S)-[(n-butoxycarbonyl)amino]-3-[[[3-[4-(aminoiminomethyl)phenyl]isoxazolin-5(R)-yl]methylcarbonyl]amino]propionic acid]
- residual DDPAS in plasma after treatment with platelets (platelet CD62 [1]; patient 099016 plasma, donor PRP 60 minutes, Compound A 1 μM): depleted of the DDPAS; also recorded: specifically depleted the DDPAS
- DDPAS in EDTA eluate of platelets (platelet CD62 [1]; platelets treated with 099016 plasma with Compound A, 9 mM EDTA, 37° C., 2 hours, versus DPC43 and DPC44): substantially positive; also recorded: elevated DDPAS
- residual DDAB in plasma after treatment with platelets ([2]; patient 099016 plasma, donor platelets, Compound A, dilutions 1/100, 1/250 and 1/500): specifically depleted the DDAB
- DDAB in EDTA eluants of platelets ([2]; platelets treated with 099016 plasma with Compound A): showed DDAB; also recorded: contain a detectable DDAB
- Delta CS (Delta Fluorescence for Costar Serocluster microtiter plates) (platelet CD62 [3]; platelet donor DPC3, ADP 0 uM): 24
- Delta H (Delta Fluorescence for H3898 microtiter plates) (platelet CD62 [3]; platelet donor DPC3, ADP 0 uM): 28
- Delta CS (Delta Fluorescence for Costar Serocluster microtiter plates) (platelet CD62 [3]; [5]): 190
- Delta H (Delta Fluorescence for H3898 microtiter plates) (platelet CD62 [3]; [5]): 338
- Delta CS (Delta Fluorescence for Costar Serocluster microtiter plates) (platelet CD62 [3]; [6]): 0
- Delta H (Delta Fluorescence for H3898 microtiter plates) (platelet CD62 [3]; [6]): −1
- time to thrombocytopenia after start of administration [4]: 3 days
